Like-named read-outs stand apart in the source and are kept apart here. Marks after values point to notes of the source that are not given here.
Key:
[1] = system: engraftment arrhythmia (EA); details: for Result: HR effect / Result: response on EA burden / Result: cardioversion: Table 1, swine; for Effect: HR effect / Effect: response on EA burden / Effect: cardioversion: Table 2, Phase 1; for effect on heart rate (agent alone) / effect on rhythm: cardioversion / sinus rhythm / arrhythmia burden (agent alone): running text and figure legend, pigs in EA
Protocol: A number of anti-arrhythmic therapies were tested to determine their efficacy in treating and preventing engraftment arrhythmias.
The objective of this study was to identify a pharmacological regimen to attenuate arrhythmias following cardiac remuscularization therapy. This study was designed in two phases: the first, to observe the natural history of EA and screen various antiarrhythmic agents for efficacy and the second, test for efficacy (FIG. 16). All subjects were 30-40 kg castrated male Yucatan minipigs between 6-13 months of age (S&S Farms). In Phase 1, nine subjects underwent cardiac remuscularization therapy with 500×10^6 hESC-CM delivered by direct surgical transepicardial injections or later, by percutaneous transendocardial injections. The first four subjects (one non-infarcted and three infarcted) were followed to learn the natural history of EA and establish clinical endpoints and parameters for the Phase 2 drug trial. The subsequent five subjects underwent systematic dosing with antiarrhythmic agents with continuous electrocardiography (ECG) monitoring to determine effect on rhythm and rate (Table 2).
In addition, the funny current/HCN4 channel antagonist, ivabradine, was tested (Tables 1 and 2). This series was not meant to be definitive but rather to rapidly identify candidate agents. Animals were brought into the laboratory while in EA, anesthetized, and the effects of short-term intravenous infusion of anti-arrhythmic agents were studied.
Subjects were administered multiple trials antiarrhythmics and observed for acute response by continuous ECG monitoring. Intravenous agents were delivered as a bolus dose over 2 minutes. Oral agents were administrated by direct observation in a minimum of apples, apple sauce or pumpkin puree with daily feeding and dosed daily for dose escalation. A washout period of at least three days was provided between agents. Amiodarone was administered as the last agent for testing given concern for prolonged half-life and elimination kinetics. All agents were tested in at least two subjects.

[2] = Amiodarone drug monitoring by liquid chromatography-mass spectrometry after discontinuation of oral therapy; format: in vivo, pigs; details: within 1 week of discontinuation of chronic oral amiodarone; pig
Protocol: Amiodarone levels were measured in plasma by a liquid chromatography-mass spectrometry assay. Chronic oral amiodarone in six pigs was discontinued after achieving electrical maturation and stabilization of engraftment arrythmia. Serum concentrations of amiodarone were assayed weekly, including 3-4 weeks after discontinuation.
A novel liquid chromatography—mass spectrometry assay was established for amiodarone to monitor steady state serum levels in the porcine model and guide oral dosing to ensure efficacy and avoid dose-related toxicity. A target serum level of 1.5-4.0 μg/ml was extrapolated from prior human pharmacokinetic studies (16,17). Elimination kinetics after discontinuation of oral amiodarone therapy were also studied by obtaining weekly trough concentrations in 6 pigs (subjects 6, 7, 8, 13, 14, 16) (FIG. 18).

[3] = system: engraftment arrhythmia (EA); assay: Antiarrhythmic trial in non-human primate engraftment model; format: in vivo; details: Table 1, concentration not given

| Structure (SMILES) | effect in the antiarrhythmic screen (heart rate or arrhythmia burden) [1] | Result: HR effect [1] | Result: response on EA burden [1] | Effect: HR effect ([1]; pig) | Effect: response on EA burden ([1]; pig) | also measured |
| --- | --- | --- | --- | --- | --- | --- |
| CC(C)NCC(O)c1ccc(NS(C)(=O)=O)cc1 (centres unmarked) [Sotalol] | no significant effect | No response on HR or EA burden | No response on HR or EA burden | No response on HR or EA burden | No response on HR or EA burden | – |
| CCN(CC)CC(=O)Nc1c(C)cccc1C [Lidocaine] | no significant effect | Modest HR effect | – | Modest HR effect | – | Result: cardioversion [1]: rare; Effect: cardioversion ([1]; pig): rare |
| O=C(NCC1CCCCN1)c1cc(OCC(F)(F)F)ccc1OCC(F)(F)F (centres unmarked) [Flecainide] | no significant effect | No response on HR or EA burden | No response on HR or EA burden | No response on HR or EA burden | No response on HR or EA burden | – |
| CCCNCC(O)COc1ccccc1C(=O)CCc1ccccc1 (centres unmarked) [Propafenone] | – | – | – | – | – | Effect: adverse events (footnotes * and **) ([1]; pig, in vivo): *Severe nausea/emesis observed at therapeutic doses, limiting clinical utility; Result: adverse events (* remarks) ([1]; pig, in vivo): * Dose limited emesis |
| O=C1CN(/N=C/c2ccc(-c3ccc([N+](=O)[O-])cc3)o2)C(O)=N1 [Dantrolene] | – | No response on HR or EA burden | No response on HR or EA burden | – | – | – |
| CCCCc1oc2ccccc2c1C(=O)c1cc(I)c(OCCN(CC)CC)c(I)c1 [Amiodarone] | – | Modest HR effect | – | Modest HR effect | – | Result: cardioversion [1]: frequent; Effect: cardioversion ([1]; pig): frequent; effect on heart rate (agent alone) [1]: moderate effect on reducing heart rate; effect on rhythm: cardioversion / sinus rhythm / arrhythmia burden (agent alone) [1]: effective as an intravenous bolus to cardiovert; Average serum amiodarone [2]: 0.42 ± 0.12 µg/mL |
| COCCc1ccc(OCC(O)CNC(C)C)cc1 (centres unmarked) [Metoprolol] | no significant effect | Moderate HR effect (IV only) | no | Moderate HR effect (IV only) | no | – |
| COc1cc2c(cc1OC)CC(=O)N(CCCN(C)C[C@H]1Cc3cc(OC)c(OC)cc31)CC2 [Ivabradine] | – | Robust dose-dependent HR | – | Robust dose-dependent HR effect (PO | only)**, no response on EA burden | Effect: adverse events (footnotes * and **) ([1]; pig, in vivo): **Severe bradycardia; effect on heart rate (agent alone) ([1]; listed as ivabradine): robust dose-dependent effects on heart rate; effect on rhythm: cardioversion / sinus rhythm / arrhythmia burden (agent alone) ([1]; listed as ivabradine): did not restore sinus rhythm |
| COc1ccc(CCN(C)CCCC(C#N)(c2ccc(OC)c(OC)c2)C(C)C)cc1OC (centres unmarked) [Verapamil] | – | – | – | – | – | Result [3]: Sudden cardiac death |

— US20230077983A1, “METHODS OF TREATING AND PREVENTING ENGRAFTMENT ARRHYTHMIAS” (UNIVERSITY OF WASHINGTON, priority 2020, published 2023)
